Measurements: ChEMBL document CHEMBL1136339, “The C-4 stereochemistry of leucocyanidin substrates for anthocyanidin synthase affects product selectivity” (2003)

Tests used:
[1] = Specific activity of 14CO2 formation from 1-[14C]-2OG corrected for uncoupled turnover in presence of anthocyanin synthase(ANS); assay type: functional
[2] = Specific activity of 14CO2 formation from 1-[14C]-2OG in presence of anthocyanin synthase(ANS); assay type: functional

| Structure (SMILES) | Specific activity [1] [ukat kg-1] | Specific activity [2] [ukat kg-1] |
| --- | --- | --- |
| Oc1cc(O)c2c(c1)O[C@H](c1ccc(O)c(O)c1)[C@@H](O)[C@H]2O | 138 | 181.5 |
| Oc1cc(O)c2c(c1)O[C@H](c1ccc(O)c(O)c1)[C@@H](O)[C@@H]2O | 342 | 385 |
| Oc1cc(O)c2c(c1)O[C@@H](c1ccc(O)c(O)c1)[C@H](O)[C@@H]2O.Oc1cc(O)c2c(c1)O[C@H](c1ccc(O)c(O)c1)[C@@H](O)[C@H]2O (racemic) | 41 | 84.1 |
| Oc1cc(O)c2c(c1)O[C@@H](c1ccc(O)c(O)c1)[C@H](O)[C@H]2O.Oc1cc(O)c2c(c1)O[C@H](c1ccc(O)c(O)c1)[C@@H](O)[C@@H]2O (racemic) | 145 | 188.4 |
